Test results reported in patent US7355047B2, “Substituted quinolone carboxylic acids, their derivatives, site of action, and uses thereof” (The Regents of the University of California, priority 2002, dated 2008).

Assays:
24 hour thirsted rats = assay: Vogel Model of Anxiety (Vogel Conflict); type: in vivo, rat; settings: compared with Diazepam (DZP), FIG. 4
Experimental: Adult male rats are randomly divided into groups of 6 rats/group. Animals were deprived of water overnight (24 hr). Food was freely available at time of thirsting. Thirty minutes after injection (i.p.) of test drug, positive control drug (diazepam, 1 mg/kg), or vehicle control rats are placed in a square Plexiglas box containing a stainless steel bottom connected to one side of a drinkometer circuit. At the other side of the drinkometer circuit a water bottle, placed so the drink tube extends into the Plexiglas box, is connected. When a subject drinks from the bottle the circuit is closed and an electric shock is delivered at the tube after seven licks are recorded. The number of licks in a 3 min session is recorded. Anti-anxiety agents will increase the number of shocks the animal is willing to endure to acquire water.

[1] = system: GABAA receptor complex (GRC); assay: [35S]TBPS binding dissociation, mouse forebrain; settings: 2 nM [35S]TBPS
[2] = system: GABAA receptor complex (GRC); assay: [35S]TBPS binding assay, rat cortex; settings: 2 nM [35S]TBPS
GABAA receptor = assay: [3H]Muscimol binding assay, rat cortex; settings: 5 nM [3H]muscimol, FIG. 7
Experimental: [^3H]Muscimol binding assay: The cortex from male Sprague-Dawley rats (160-200 g) was removed immediately after euthanizing and dissected over ice. The tissue was homogenized in 15 vol of 0.32M sucrose followed by centrifugation for 10 min at 1000× g. The supernatant was transferred to a 38 mL polycarbonate tube (Beckman Instruments, Palo Alto Calif.) and centrifuged at 20,000× g for 20 min. The membrane pellet was resuspended in 10 vol of dH2O and centrifuged at 8,000× g for 20 min. The resulting pellet was washed with dH2O once and with Na^+-free assay buffer (40 mM KH2PO4, 100 mM KCl, pH 7.4). The pellet was resuspended in 35 mL of Na^+-free assay buffer, incubated at 37° C. for thirty minutes and then centrifuged 31,000× g for twenty minutes. The final pellet was resuspended in 10 vol of Na^+-free assay buffer. Protein concentration of membrane preparations was ˜1 mg/mL by BCA reagent protein assay. Aliquots of membrane suspension (100 μL) were incubated in Na^+-free assay buffer with 5 nM [^3H]muscimol (25 Ci/mmol, New England Nuclear, Boston, Mass.) and 5 μL of dimethylsulfoxide (DMSO) or drug dissolved in DMSO. The final volume of the incubation medium was 1 mL. […] Filter-bound radioactivity was quantified by LSC after an overnight extraction. The data were evaluated by nonlinear regression to obtain IC50 and EC50 values.

Male NSA mice = assay: Mouse Light-Dark Transition Model of Anxiety; type: in vivo; settings: compared with Diazepam (DZP), FIG. 3
Experimental: Male NSA mice (25-30 g) are used. The apparatus consists of an open-topped box divided into small and large area by a partition that has a hole at floor level. The small compartment is painted black and the large compartment white. The white compartment was illuminated with light and the black compartment with red light. The time spent in the light versus dark compartments and the number of transitions between compartments is recorded during a 5 min test session. Vehicle or test compounds are administered 30 min prior to the test. Diazepam is administered (i.p.) at 2 mg/kg as the positive control. Anti-anxiety agents will reduce the time the animals will spend in the dark compartment and increase the number of transitions between the two compartments.

[3] = biological target: T1, human GABAA receptors containing α2β2γ2 subunits (Homo sapiens, UniProt P18507+P47869+P47870); assay: Electrophysiology Assay 2, GABAA subunit transfected HEK cells (α2β2γ2); type: cell-based; settings: expressed human α2β2γ2 receptors; versus diazepam; FIG. 2
T1 construct: expressed in transfected cells; host or cells: HEK cells
Experimental: GABAA subunit transfected HEK cells are maintained at 37° C. and 5% CO2 using Dulbecco's Modified Eagle's Medium with L-glutamine and no sodium pyruvate (Irvine Scientific #9031, Irvine Calif.) and supplemented with 10% fetal bovine serum (Irvine Scientific #3000), 10 U/ml hygromycin B (Calbiochem #400051), and an antibiotic cocktail consisting of 100 μg/ml streptomycin sulfate, 0.25 μg/ml amphotericin B, 100 units/ml penicillin G (Gibco 15240-096, Gaithersburg Md.). Cells are passed by 2× wash with phosphate buffered saline (PBS) pH 7.4 and lifted using 1× trypsin/EDTA solution in PBS (0.5 mg/ml trypsin, 0.2 mg/ml EDTA, Irvine Scientific #9342) when confluency reaches ˜90%.
GABAA subunit transfected HEK cells are grown to ˜70% confluency on slide. Cells are transferred to a bath that is continuously perfused with extracellular saline. The extracellular medium contained 145 mM NaCl, 3 mM KCl, 1.5 mM CaCl2, 1 mM MgCl2, 5.5 mM d-glucose, and 10 mM HEPES, pH 7.4 at an osmolarity of 320-330 mosM. Recordings are performed at room temperature using the whole cell patch clamp technique. The patch pipette solution contained 147 mM N-methyl-D-glucamine hydrochloride, 5 mM CsCl, 5 mM K2ATP, 5 mM HEPES, 1 mM MgCl2, 0.1 mM CaCl2, and 1.1 mM EGTA, pH 7.2, at an osmolarity of 315 mosM. Pipette-to-bath resistance is typically 3-5 Mohms. […]

[4] = absence or presence of 3 μM and 10 μM (+)-bicuculline, FIG. 5

T1 sequence (P47869 29-451): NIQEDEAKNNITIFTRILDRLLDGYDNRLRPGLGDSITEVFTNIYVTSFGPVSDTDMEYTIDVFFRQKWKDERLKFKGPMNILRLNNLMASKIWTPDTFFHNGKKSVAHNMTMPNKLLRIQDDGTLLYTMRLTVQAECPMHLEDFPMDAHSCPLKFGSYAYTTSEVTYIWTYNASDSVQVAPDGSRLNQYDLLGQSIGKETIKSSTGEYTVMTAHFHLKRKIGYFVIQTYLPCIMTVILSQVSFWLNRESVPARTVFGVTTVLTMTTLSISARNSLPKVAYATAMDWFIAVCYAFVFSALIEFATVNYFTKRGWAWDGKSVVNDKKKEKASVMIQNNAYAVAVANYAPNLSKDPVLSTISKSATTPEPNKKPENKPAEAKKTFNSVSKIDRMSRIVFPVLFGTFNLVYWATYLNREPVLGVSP
T1 sequence (P47870 25-512 limits assumed): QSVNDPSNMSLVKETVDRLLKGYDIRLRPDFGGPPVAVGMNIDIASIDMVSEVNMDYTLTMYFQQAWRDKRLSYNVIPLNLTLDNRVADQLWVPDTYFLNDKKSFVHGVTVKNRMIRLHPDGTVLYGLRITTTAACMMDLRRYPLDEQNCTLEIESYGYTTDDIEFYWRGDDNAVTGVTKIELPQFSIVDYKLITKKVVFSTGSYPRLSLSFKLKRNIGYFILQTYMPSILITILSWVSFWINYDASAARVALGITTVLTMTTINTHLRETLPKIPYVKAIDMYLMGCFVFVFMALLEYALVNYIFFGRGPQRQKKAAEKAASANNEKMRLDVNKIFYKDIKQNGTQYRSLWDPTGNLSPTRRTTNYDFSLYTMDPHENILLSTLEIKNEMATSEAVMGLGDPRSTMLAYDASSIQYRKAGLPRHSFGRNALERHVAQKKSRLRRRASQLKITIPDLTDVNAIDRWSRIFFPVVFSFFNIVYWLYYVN
T1 sequence (P18507 40-475): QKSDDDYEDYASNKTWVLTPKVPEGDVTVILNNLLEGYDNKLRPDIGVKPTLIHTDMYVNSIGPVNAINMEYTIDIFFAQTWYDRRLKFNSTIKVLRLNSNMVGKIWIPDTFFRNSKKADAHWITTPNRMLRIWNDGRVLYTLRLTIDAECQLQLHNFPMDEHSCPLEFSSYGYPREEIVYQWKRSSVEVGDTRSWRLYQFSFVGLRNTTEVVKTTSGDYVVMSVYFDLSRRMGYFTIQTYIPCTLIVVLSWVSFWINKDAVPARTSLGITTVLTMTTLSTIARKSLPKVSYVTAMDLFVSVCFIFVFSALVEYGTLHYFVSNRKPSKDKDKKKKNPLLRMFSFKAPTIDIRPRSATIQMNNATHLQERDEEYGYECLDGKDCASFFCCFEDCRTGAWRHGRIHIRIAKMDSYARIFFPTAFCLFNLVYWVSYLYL

CCn1cc(C(=O)O)c(=O)c2cc(NC3CCCc4ccccc43)c(Cl)cc21 (stereo not drawn) [compound 3, 7-chloro-1-ethyl-6-(1,2,3,4-tetrahydronaphthyl-1-amino)-4-oxo-1,4-dihydroquinoline-3-carboxylic acid]
anti-anxiety effects, punished responding (number of licks during a 3 minute period) (24 hour thirsted rats): comparable to that of DZP | dissociation of [35S]TBPS binding in absence or presence of ivermectin ([1]; initiated by 10 μM compound 3, 10 μM ivermectin, FIG. 12): do not share a common site of action | dissociation of [35S]TBPS binding in absence or presence of mefenamic acid ([1]; initiated by 10 μM compound 3, 10 μM mefenamic acid, FIG. 13): do not share a common site of action | interaction with 5α,20α-diol inhibition of [35S]TBPS binding (neurosteroid site) ([2]; 10 μM compound 3 or 100 nM 3α,5α-P, rat cortex, FIG. 8): does not act directly on the neurosteroid site of the GRC | effect on [35S]TBPS binding in absence or presence of norfloxacin ([2]; 30 μM and 100 μM norfloxacin, rat cortex, FIG. 9): does not act directly at the same site as the antibacterial quinolone norfloxacin | effect on [35S]TBPS binding in absence or presence of Ro5-4864 (4′-chlorodiazepam) ([2]; 0.3, 1 and 30 μM Ro5-4864, rat cortex, FIG. 11): does not act directly at the same site as 4′-chlorodiazepam | dependence on GABA of the effect on [35S]TBPS binding [2, 4]: absolute dependence of compound 3 on GABA for efficacy | site of action relative to the [35S]TBPS site [2, 4]: allosterically coupled to and does not act directly on the [^35S]TBPS site | dissociation of [35S]TBPS binding in absence or presence of pentobarbital ([2]; initiated by 10 μM compound 3, 30 μM pentobarbital, rat cortex, FIG. 10): do not share a common site of action | effect on [3H]muscimol binding to the GABAA receptor (GABAA receptor): does not act directly on the GABAA receptor | anti-anxiety effects, time spent in the dark (Male NSA mice): comparable to that of DZP | efficacy on GABA induced currents (IGABA) [3]: dose-dependent positive efficacy
